Test results from patent US11352308B2, “Compound and semiconductor material containing same” (DIC Corporation, priority 2016, dated 2022).

Experiment: Solubility in p-xylene at room temperature (25° C.), visual complete dissolution
Assay type: physicochemical
Protocol: Solubility was evaluated by completely dissolving compound (101) visually by adding p-xylene at room temperature (25° C.).

Structure (SMILES) | Solubility of compound
CCCCCCCc1ccc2cc3cc(-c4ccccc4)ccc3cc2c1 [Compound (102)] | 1.1 wt %
CCCCCCCCCCc1ccc2cc3cc(-c4ccc(C)cc4)ccc3cc2c1 [Compound (107)] | 0.4 wt %
CCCCCCCCCCc1ccc2cc3cc(-c4ccccc4)ccc3cc2c1 [Compound (105)] | 0.4 wt %
CCCCCCCCc1ccc2cc3cc(-c4ccccc4)ccc3cc2c1 [Compound (103)] | 0.7 wt %
CCCCCCCCCc1ccc2cc3cc(-c4ccccc4)ccc3cc2c1 [Compound (104)] | 0.7 wt %
CCCCCCc1ccc2cc3cc(-c4ccc(C)cc4)ccc3cc2c1 [Compound (106)] | 0.8 wt %
CCCCCCc1ccc2cc3cc(-c4ccccc4)ccc3cc2c1 [Compound (101)] | 1.3 wt %
c1ccc(-c2ccc3cc4cc(-c5ccccc5)ccc4cc3c2)cc1 [Compound (C101), reference compound] | <0.1 (which cannot accurately be wt %
